Structures can show the parent of a compound that is named as a salt.
Test system: IL-1β Production of THP-1
Experiment: Test on IL-1β production of THP-1 (LPS and ATP stimulation, ELISA)
Format: cell-based
Settings: Homo sapiens; PMA-differentiated THP-1 cells, LPS 50 ng/mL and ATP 5 mM, 2 hours
Procedure: 50 ng/mL of PMA (phorbol myristate acetate, SIGMA, P1585) was added to THP-1 cells, and the cells were cultured at 37° C. for 2 days. […] LPS (Lipopolysaccharide, SIMGA, L2880) and ATP (Adenosine triphosphate, SIGMA, A2383) were added to final concentrations of 50 ng/mL and 5 mM, respectively, and the cells were cultured at 37° C. for 2 hours. The supernatant was collected, and the concentration of IL-1β was measured by an ELISA method (DuoSet ELISA human IL-1β, R&D Systems, DY201). […] The IC50 value was calculated by sigmoid […] model non-linear regression analysis.

| SMILES | IC50 [nM] |
| --- | --- |
| Cc1c(NC[C@@H](C)CO)nnc(-c2ccc(C(F)(F)F)cc2O)c1C (single isomer, unassigned) [Example 76, 2-(6-{[(R2R)-3-hydroxy-2-methylpropyl]amino}-4,5-dimethylpyridazine-3-yl)-5-(trifluoromethyl)phenol] | 26 |
| OCCCNc1cc(-c2ccccc2)c(-c2ccc(C(F)(F)F)cc2)nn1 [Example 1, 3-({5-phenyl-6-[4-(trifluoromethyl)phenyl]pyridazin-3-yl}amino)propan-1-ol] | 980 |
| OCCCNc1nnc(-c2ccc(C(F)(F)F)cc2)cc1-c1ccccc1 [Example 2] | 1800 |
| CCOC(=O)c1cc(-c2ccc(C(F)(F)F)cc2C(F)(F)F)nnc1NC[C@@H](C)O [Example 3, ethyl 6-[2,4-bis(trifluoromethyl)phenyl]-3-{[(2R)-2-hydroxypropyl]amino}pyridazine-4-carboxylate] | 120 |
| Cc1cc(NC[C@@H](C)O)nnc1-c1ccc(C(F)(F)F)cc1C(F)(F)F [Example 5, (2R)-1-({6-[2,4-bis(trifluoromethyl)phenyl]-5-methylpyridazin-3-yl}amino)propan-2-ol] | 200 |
| Cc1cc(-c2ccc(C(F)(F)F)cc2C(F)(F)F)nnc1NC[C@@H](C)O [Example 6, (2R)-1-({6-[2,4-bis(trifluoromethyl)phenyl]-4-methylpyridazin-3-yl}amino)propan-2-ol] | 90 |
| Cc1cc(NC[C@@H](C)O)nnc1-c1ccc(C(F)(F)F)cc1O [Example 7, 2-(6-{[(R2R)-2-hydroxypropyl]amino}-4-methylpyridazin-3-yl)-5-(trifluoromethyl)phenol] | 17 |
| Cc1cc(-c2ccc(C(F)(F)F)cc2O)nnc1NC[C@@H](C)O [Example 8, 2-(6-{[(R2R)-2-hydroxypropyl]amino}-5-methylpyridazin-3-yl)-5-(trifluoromethyl)phenol] | 160 |
| CC(O)CNc1ccc(-c2ccc(C(F)(F)F)cc2C(F)(F)F)nn1 (centres unmarked) [Example 10] | 200 |
| CC(=O)NCCCCNc1ccc(-c2ccc(C(F)(F)F)cc2C(F)(F)F)nn1 [Example 11] | 150 |
| C[C@@H](O)CNc1ccc(-c2ccc(C(F)(F)F)cc2C(F)(F)F)nn1 [Example 12] | 150 |
| C[C@@H](O)CNc1nnc(-c2ccc(C(F)(F)F)cc2C(F)(F)F)cc1-n1cccn1 [Example 13] | 120 |
| C[C@@H](O)CNc1nnc(-c2ccc(C(F)(F)F)cc2C(F)(F)F)cc1C(=O)N(C)C [Example 14] | 330 |
| Cc1cc(C)n(-c2cc(-c3ccc(C(F)(F)F)cc3C(F)(F)F)nnc2NC[C@@H](C)O)n1 [Example 15] | 97 |
| Cc1cc(N[C@@H]2CCCC[C@H]2O)nnc1-c1ccc(C(F)(F)F)cc1C(F)(F)F [Example 16] | 200 |
| Cc1cc(-c2ccc(C(F)(F)F)cc2C(F)(F)F)nnc1N[C@@H]1CCCC[C@H]1O [Example 17] | 110 |
| C[C@@H](O)CNc1ccc(-c2ccc(C(F)(F)F)cc2O)nn1 [Example 18] | 260 |
| C[C@@H](O)CNc1nnc(-c2ccc(C(F)(F)F)cc2C(F)(F)F)cc1OCCOCc1ccccc1 [Example 19] | 610 |
| Cc1c(NC[C@H](C)O)nnc(-c2ccc(C(F)(F)F)cc2C(F)(F)F)c1C [Example 20] | 1500 |
| COc1ccc(-c2cc(C)c(NC[C@@H](C)O)nn2)c(C(F)(F)F)c1 [Example 21] | 160 |
| COc1ccc(-c2cc(C)c(NC[C@@H](C)O)nn2)c(C2CC2)c1 [Example 22] | 530 |
| Cc1cc(-c2ccc(Cl)cc2C(F)(F)F)nnc1NC[C@@H](C)O [Example 23] | 120 |
| CC(C)c1cc(-c2ccc(C(F)(F)F)cc2C(F)(F)F)nnc1NC[C@@H](C)O [Example 24] | 560 |
| Cc1cc(NC[C@@H](C)O)nnc1-c1ccccc1O [Example 25] | 500 |

| SMILES | IC50 [nM] |
| --- | --- |
| CC(C)c1cc(NC[C@@H](C)O)nnc1-c1ccc(C(F)(F)F)cc1O [Example 26] | 54 |
| Cc1cc(NC[C@@H](C)O)nnc1-c1ccc(F)cc1O [Example 27] | 190 |
| C[C@@H](O)CNc1nnc(-c2ccc(C(F)(F)F)cc2C(F)(F)F)cc1C1CC1 [Example 28] | 200 |
| C[C@@H](O)CNc1cc(C2CC2)c(-c2ccc(C(F)(F)F)cc2C(F)(F)F)nn1 [Example 29] | 460 |
| Cc1cc(NC[C@@H](C)O)nnc1-c1cccc(F)c1O [Example 30] | 510 |
| COc1cccc(-c2nnc(NC[C@@H](C)O)cc2C)c1O [Example 31] | 270 |
| C[C@@H](O)CNc1cc(C2CC2)c(-c2ccc(C(F)(F)F)cc2O)nn1 [Example 32] | 11 |
| Cc1cc(NC[C@@H](C)O)nnc1-c1cccc(Cl)c1O [Example 33] | 170 |
| CC(=O)O[C@H](C)CNc1cc(C)c(-c2ccc(C(F)(F)F)cc2O)nn1 [Example 34] | 21 |
| C[C@@H](O)CNc1nnc(-c2ccc(C(F)(F)F)cc2O)cc1N(C)C [Example 35] | 590 |
| Cc1cc(NC[C@@H](C)O)nnc1-c1c(O)cccc1F [Example 36] | 620 |
| C[C@@H](O)CNc1nnc(-c2ccc(C(F)(F)F)cc2O)cc1C#N [Example 37] | 33 |
| C[C@@H](O)CNc1nnc(-c2ccc(C(F)(F)F)cc2O)c(C2CC2)c1C1CC1 [Example 39] | 750 |
| C[C@@H](O)CNc1nnc(-c2ccc(C(F)(F)F)cc2C(F)(F)F)cc1C(=O)N1CCOCC1 [Example 40, (6-[2,4-bis(trifluoromethyl)phenyl]-3-{[(2R)-2-hydroxypropyl]amino}pyridazin-4-yl)(morpholin-4-yl)methanone] | 240 |
| C[C@@H](O)CNc1nnc(-c2ccc(C(F)(F)F)cc2C(F)(F)F)cc1C(N)=O [Example 41] | 200 |
| C[C@@H](O)CNc1nnc(-c2ccc(C(F)(F)F)cc2C(F)(F)F)cc1C(=O)N1CCN(C)CC1 [Example 42, (6-[2,4-bis(trifluoromethyl)phenyl]-3-{[(2R)-2-hydroxypropyl]amino}pyridazine-4-yl)(4-methylpiperazin-1-yl)methanone] | 1500 |
| C[C@@H](O)CNc1nnc(-c2ccc(C(F)(F)F)cc2C(F)(F)F)cc1C(=O)N1CCO[C@@H](C)C1 [Example 43] | 860 |
| C[C@@H](O)CNc1nnc(-c2ccc(C(F)(F)F)cc2C(F)(F)F)cc1C(=O)N1CCSCC1 [Example 44] | 570 |
| CC(=O)N[C@H](C)CNc1ccc(-c2ccc(C(F)(F)F)cc2C(F)(F)F)nn1 [Example 45, N—[(R2R)-1-({6-[2,4-bis(trifluoromethyl)phenyl]pyridazin-3-yl}amino)propan-2-yl]acetoamide] | 530 |
| O=C(NCCCCNc1ccc(-c2ccc(C(F)(F)F)cc2C(F)(F)F)nn1)C(F)F [Example 46, N-[4({6-[2,4-bis(trifluoromethyl)phenyl]pyridazin-3-yl}amino)butyl]-2,2-difluoroacetoamide] | 120 |
| CC(C)C(=O)NCCCCNc1ccc(-c2ccc(C(F)(F)F)cc2C(F)(F)F)nn1 [Example 47] | 400 |
| O=C(NCCCCNc1ccc(-c2ccc(C(F)(F)F)cc2C(F)(F)F)nn1)C1CC1 [Example 48] | 510 |
| C[C@@H](O)CNc1nnc(-c2ccc(C(F)(F)F)cc2C(F)(F)F)cc1OC(F)F [Example 49, (2R)-1-({6-[2,4-bis(trifluoromethyl)phenyl]-4-(difluoromethoxy)pyridazin-3-yl}amino)propan-2-ol hydrochloride] | 680 |
